Data from paper PMC5107945, “Abscinazole-E3M, a practical inhibitor of abscisic acid 8′-hydroxylase for improving drought tolerance” (Scientific Reports, 2016).
Where two headings read alike, the source gives them in different places.

How the values were obtained:
[1] = target: T1, Rice recombinant CYP701A6 (ent-kaurene oxidase) (Oryza sativa subsp. japonica, UniProt Q5Z5R4); assay: CYP701A6 inhibition assay (formation of end product KA); format: biochemical
T1 construct: made in house; host or cells: insect cells (baculovirus vector)
T1 sequence (Q5Z5R4 1-505): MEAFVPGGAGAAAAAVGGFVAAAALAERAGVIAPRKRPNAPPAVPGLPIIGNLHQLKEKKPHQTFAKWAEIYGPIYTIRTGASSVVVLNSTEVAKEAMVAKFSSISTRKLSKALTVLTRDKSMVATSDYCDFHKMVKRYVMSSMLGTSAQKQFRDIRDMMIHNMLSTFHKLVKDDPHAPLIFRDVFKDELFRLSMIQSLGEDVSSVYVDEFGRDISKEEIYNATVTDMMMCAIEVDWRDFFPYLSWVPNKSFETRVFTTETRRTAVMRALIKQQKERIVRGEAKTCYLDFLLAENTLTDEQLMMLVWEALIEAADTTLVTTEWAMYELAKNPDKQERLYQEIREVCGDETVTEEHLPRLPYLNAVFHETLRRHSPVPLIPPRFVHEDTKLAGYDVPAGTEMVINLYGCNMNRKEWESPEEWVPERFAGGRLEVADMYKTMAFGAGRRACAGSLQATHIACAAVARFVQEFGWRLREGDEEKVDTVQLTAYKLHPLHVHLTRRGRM
Protocol: To evaluate the enzymatic selectivity between CYP707A and CYP701A, we examined the inhibitory activity against recombinant rice containing CYP701A6 expressed in insect cells using a baculovirus vector. This enzyme catalyses all three steps to KA via the corresponding alcohol and aldehyde, and consequently, the kinetic analysis is very complicated. Therefore, we evaluate the IC50 value for the formation of the end product, KA, instead of the KI value.
Reaction mixtures, containing 0.058 μM of […] microsomes, ATR2 (0.115 U), ent-kaurene (final concentration of 10 μM), inhibitors (0 for control, 1.5–1,500 μM in 8 μL dimethylformamide), and 20 mM NADPH in 500 mM potassium phosphate buffer (pH 7.4), were incubated at 30 °C for 10 min. Reactions were initiated by adding NADPH and stopped by the addition of 100 μL of 1 M HCl. Abietic acid, as the internal standard, was then added to the reaction product, which was extracted with EtOAc (400 μL × 3). The organic phase was dried over Na2SO4 and concentrated in vacuo. To derivatize the reaction products, MeOH (50 μL) and trimethylsilyldiazomethane (2 M in 5 μL hexane) were added, and the reaction mixture was incubated at room temperature for 10 min. The organic solvent was removed under N2, and samples were adjusted to 150 μL with hexane before a gas chromatography-mass spectrometry analysis (QP2010-plus; Shimadzu Corp., Kyoto, Japan). The conditions were as follows: the column was DB-5ms (0.25 mm id × 15 m, 0.25 μm film thickness; Agilent J & W, Folsom, CA, USA), the carrier gas was He, the flow rate was 1.65 mL min^−1, the injection port temperature was 280 °C, splitless injection, and the programmed column temperature was a step gradient of 80 °C for 1 min, 80–200 °C at 18 °C min^−1, 200–210 °C at 2 °C min^−1, 210–280 °C at 30 °C min^−1, and then 280 °C for 3 min. The KA content was calculated from the area ratio of molecular and fragment ions of methyl KA (m/z 316, 273, and 257) to those of methyl abietate (m/z 316 and 256). The inhibition ratio was defined as [(A − B)/A] × 100, where A = the amount of methyl KA/methyl abietate when the inhibitor was absent from the reaction mixture (control), and B = the amount of methyl KA/methyl abietate when the inhibitor was present. All of the tests were conducted at least three times.

rice seedling growth = assay: Rice seedling elongation assay; format: in vivo, Oryza sativa L. cv. Nipponbare; settings: 0.3 μM; 7 d
Protocol: The effects of (−)-Abz-T compounds were also tested on the early growth of rice seedlings to investigate whether the plant growth-retardant effect derived from UNI declined. […] This was the same trend observed for (−)-Abz-E2B[26]. […] Thus, the growth-retardant effects of (−)-Abz-T compounds may arise from an increase in the endogenous ABA level due to the CYP707A inhibition, although we cannot exclude the possibility that Abz-T compounds may inhibit off-target enzymes other than CYP707A and CYP701A.
Figure 4 Effects of (−)-Abz-T compounds on rice seedling growth compared with the effects of UNI and (−)-Abz-E2B. Seedlings grown on test media containing indicated concentrations of azole inhibitors for 7 d. Scale bars represent 10 mm. Compound 6 is also referred to as Abz-E3M.
For the rice seedling elongation assay, seven seeds (Oryza sativa L. cv. Nipponbare) were sterilised with reagent-grade EtOH for 5 min and washed with running tap water. They were then soaked in distilled water and incubated under continuous illumination at 25 °C for 3 d to germinate. The germinated seeds were then soaked in 2 mL of a test medium in a glass tube and grown under continuous illumination at 25 °C. When the seedlings were 7 d old, the length of the second leaf sheath was measured. All of the assays were conducted at least three times.

[2] = target: T2, Arabidopsis recombinant CYP707A3 (ABA 8′-hydroxylase) (Arabidopsis thaliana, UniProt Q9FH76); assay: CYP707A3 inhibition assay (decrease of enzymatic product PA); format: biochemical; settings: Arabidopsis recombinant CYP707A3 expressed in E. coli; for IC50: 5 μM ABA as substrate, read-out: CYP707A IC50
T2 construct: made in house; host or cells: Escherichia coli (microsomal/membrane fraction)
T2 sequence (Q9FH76 1-463): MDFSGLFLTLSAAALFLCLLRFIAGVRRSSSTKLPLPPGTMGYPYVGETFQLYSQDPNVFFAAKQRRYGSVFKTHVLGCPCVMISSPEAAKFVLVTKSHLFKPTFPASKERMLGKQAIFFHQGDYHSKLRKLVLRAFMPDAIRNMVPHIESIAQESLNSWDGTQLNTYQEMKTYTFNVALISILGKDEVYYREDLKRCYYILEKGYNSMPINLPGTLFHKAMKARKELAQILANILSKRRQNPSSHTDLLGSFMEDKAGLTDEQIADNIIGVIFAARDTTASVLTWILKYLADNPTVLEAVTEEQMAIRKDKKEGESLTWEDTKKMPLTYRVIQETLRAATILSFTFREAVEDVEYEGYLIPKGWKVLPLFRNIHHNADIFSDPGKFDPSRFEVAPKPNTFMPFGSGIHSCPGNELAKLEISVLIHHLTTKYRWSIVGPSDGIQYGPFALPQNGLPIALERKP
Protocol: The inhibitory activities of Abz-T compounds against ABA 8′-hydroxylase were examined using recombinant Arabidopsis CYP707A3 co-expressed with Arabidopsis P-450 reductase (ATR1) in Escherichia coli[22]. The activity levels were evaluated based on the decrease in the amount of the enzymatic product, PA.
Reactions were initiated by adding NADPH, stopped by the addition of 25 μL of 1 M NaOH and then acidified with 50 μL of 1 M HCl. Reaction products were extracted by loading the mixture onto an Oasis HLB cartridge (1 mL, 30 mg; Waters Corp., Milford, MA, USA) and were washed with 1 mL of 10% MeOH in H2O (v/v) containing 1% acetic acid (AcOH, v/v). The enzyme products were then eluted with 1 mL of MeOH containing 1% AcOH, and the eluate was concentrated in vacuo. Each dried sample was then dissolved in 50 μL of MeOH, and a 20-μL volume was subjected to HPLC (Prominence; Shimadzu Corp., Kyoto, Japan). HPLC conditions were as follows: the octadecylsilyl column was composed of Hydrosphere C18 (150 × 6.0 mm, YMC Co., Ltd., Kyoto, Japan), and the solvent comprised 17% acetonitrile (MeCN) in H2O containing 0.05% AcOH (v/v). The flow rate was 1.0 mL min^−1, and detection was at 254 nm. Enzyme activity was evaluated by determining the amount of PA in control experiments prior to taking each set of measurements. The inhibition constants were determined using the Enzyme Kinetics module of the SigmaPlot 10 software (Systat Software, Inc., San Jose, CA, USA) after determining the inhibition mode by plotting the reaction velocity in the presence and absence of the inhibitor on a double-reciprocal plot. The inhibition ratio was defined as [(A − B)/A] × 100, where A = the amount of PA when the inhibitor was absent from the reaction mixture (control), and B = the amount of PA when the inhibitor was present. All of the tests were conducted at least three times.

[3] = tested on: ABA-responsive genes MAPKKK18, RD29A and RD29B; assay: qRT-PCR of ABA-responsive genes in Arabidopsis seedlings; format: in vivo, Arabidopsis (Columbia accession); settings: 10-day-old seedlings, 6 h
Protocol: Figure 5 Effects of (−)-Abz-E3M on the expression levels of Arabidopsis ABA-responsive genes. Expression of MAPKKK18, RD29A and RD29B after treatment with (−)-Abz-E2B or (−)-Abz-E3M in the absence or presence of 0.25 μM ABA (n = 4, error bar represents s.d.).
Arabidopsis (Columbia accession) were grown for 10 d on agar plates containing 1/2 Murashige and Skoog (MS) and 0.5% sucrose at 22 °C under an 18/6-h light/dark cycle. Seedlings were incubated in the chemical solutions for 6 h. Total RNA from seedlings was isolated using the Plant RNA purification reagent (Thermo Fisher Scientific) according to the manufacturer’s instructions. cDNA was synthesised using the QuantiTec reverse transcription kit (Qiagen). Maize (cv. Gold rush, Sakata Seed Corporation) seedlings were grown in 100-mL pots containing 75 g of moist soil in a glass house. The root parts of the maize seedlings were washed with tap water and dipped in 100 μM (−)-Abz-E3M chemical solution containing 0.05% Tween-20 overnight. Total RNA from maize seedlings was isolated using an RNeasy mini kit (Qiagen) with the ‘on-column’ DNA digestion method. cDNA was synthesised using a High-Capacity cDNA Reverse Transcription Kit (Thermo Fisher Scientific). Real-time PCR using SYBR Premix Ex Taq™ II (Takara) was performed with Step One-Plus (Thermo Fisher Scientific). The primer sets are shown in Supplemental Table S1.

[4] = Rice recombinant CYP701A6 expressed in insect cells, 10 μM ent-kaurene, formation of KA, read-out: CYP701A IC50

With `CC(C)(C)[C@H](O)/C(=C\c1ccc(Cl)cc1)n1cncn1` [UNI, S-uniconazole, reference compound] as the compound, how does the IC50 [1] read?
Its IC50 is 0.057 µM.

What about the “Effect on elongation of rice seedlings” value (rice seedling growth) of the same compound?
The value was “strongly inhibited the elongation of rice seedlings”.

Which IC50 [2] does the source give for abscinazole-E3M [(+)-6] here?
Its IC50 is 1.2 µM.

And the IC50 [1, 4]?
The IC50 was 1.6 µM.

For “abscinazole-E2B [(−)-Abz-E2B, reference compound]”, which IC50 [2] is on record?
Its IC50 is 0.054 µM.

What about the Ki ([2]; ABA 1–64 μM, read-out: CYP707A KI) of the same compound?
Its Ki is 0.038 µM.

And the IC50 [1, 4]?
Its IC50 is 1.2 µM.

And the “Expression of ABA-responsive genes MAPKKK18, RD29A and RD29B” value ([3]; absence of exogenous ABA)?
Its value is “did not induce the expression”.

What about the “Expression of ABA-responsive genes MAPKKK18, RD29A and RD29B” value ([3]; co-treatment with 0.25 μM ABA) of the same compound?
Its value is “enhanced the expression levels of ABA-responsive genes”.

Which results are given for “abscinazole-E2B [(+)-Abz-E2B, reference compound]”?
IC50 [2]: 1.1 µM; IC50 [1, 4]: 1.3 µM
